Reference: article PMC10017709, “Structural basis of selective cannabinoid CB2 receptor activation” (Nature Communications, 2023)

Experiments:
CB1R-H270^ECL2L = CB1R-H270^ECL2L (Homo sapiens, UniProt P21554, H270L); assay: [35S]GTPγS assay, CB1R H270L mutant; assay type: biochemical
CB1R QuadrupleTM1,7 = assay: [35S]GTPγS assay, CB1R quadruple mutant; assay type: biochemical, human
CB2R-S285^7.39A = CB2R-S285^7.39A (Homo sapiens, UniProt P34972, S285A); assay: [35S]GTPγS assay, CB2R S285A mutant; assay type: biochemical
Sequence of CB2R-S285^7.39A (P34972 whole entry S285A): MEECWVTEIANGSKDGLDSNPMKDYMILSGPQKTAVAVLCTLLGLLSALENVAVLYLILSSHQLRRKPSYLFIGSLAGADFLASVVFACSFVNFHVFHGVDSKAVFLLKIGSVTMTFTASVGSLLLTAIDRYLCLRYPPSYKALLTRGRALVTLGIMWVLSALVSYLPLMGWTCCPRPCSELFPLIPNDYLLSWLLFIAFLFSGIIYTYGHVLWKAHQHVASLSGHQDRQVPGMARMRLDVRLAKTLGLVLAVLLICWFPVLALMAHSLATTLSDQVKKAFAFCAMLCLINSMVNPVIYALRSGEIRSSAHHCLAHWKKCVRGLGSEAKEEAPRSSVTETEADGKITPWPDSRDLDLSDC

hCB1R WT = hCB1R WT (Homo sapiens, UniProt P21554); assay: [35S]GTPγS G protein activation assay, CB1R WT; assay type: biochemical
Sequence of hCB1R WT (P21554 whole entry): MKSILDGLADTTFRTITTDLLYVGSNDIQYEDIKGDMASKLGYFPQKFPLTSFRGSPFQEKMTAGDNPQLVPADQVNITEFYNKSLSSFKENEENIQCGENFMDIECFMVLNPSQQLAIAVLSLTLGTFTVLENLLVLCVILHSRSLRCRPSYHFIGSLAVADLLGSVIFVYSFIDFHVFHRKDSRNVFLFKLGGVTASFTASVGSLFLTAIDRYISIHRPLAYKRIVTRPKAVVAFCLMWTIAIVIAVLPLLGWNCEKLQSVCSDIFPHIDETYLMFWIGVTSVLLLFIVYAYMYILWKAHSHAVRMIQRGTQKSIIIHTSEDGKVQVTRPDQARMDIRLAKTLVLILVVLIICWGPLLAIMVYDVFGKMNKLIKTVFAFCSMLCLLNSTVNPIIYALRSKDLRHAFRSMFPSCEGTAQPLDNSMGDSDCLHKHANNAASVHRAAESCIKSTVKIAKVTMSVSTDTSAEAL

CB2R-E181^ECL2D = CB2R-E181^ECL2D (Homo sapiens, UniProt P34972, E181D); assay: [35S]GTPγS assay, CB2R E181D mutant; assay type: biochemical
Sequence of CB2R-E181^ECL2D (P34972 whole entry E181D): as the sequence (P34972 whole entry S285A) above, with E181D, A285S counted along it

CB1R D266ECL2E = target: T1, CB1R D266ECL2E (Homo sapiens, UniProt P21554, D266E); assay: [35S]GTPγS assay, CB1R D266E mutant; assay type: biochemical
T1 construct: The WT CB1R and CB2R genes were subcloned into vector pcDNA3.1; HA signal peptide (N); expressed in transfected cells; host or cells: HEK293T (transient, membrane homogenates)
T1 sequence (P21554 whole entry D266E): as the sequence (P21554 whole entry) above, with D266E counted along it

CB1R I267ECL2L = CB1R I267ECL2L (Homo sapiens, UniProt P21554, I267L); assay: [35S]GTPγS assay, CB1R I267L mutant; assay type: biochemical
Sequence of CB1R I267ECL2L (P21554 whole entry I267L): as the sequence (P21554 whole entry) above, with I267L counted along it

CB2R WT = CB2R WT (Homo sapiens, UniProt P34972); assay: [35S]GTPγS G protein activation assay, CB2R WT; assay type: biochemical
Sequence of CB2R WT (P34972 whole entry): as the sequence (P34972 whole entry S285A) above, with A285S counted along it

CB2R-L182^ECL2I = CB2R-L182^ECL2I (Homo sapiens, UniProt P34972, L182I); assay: [35S]GTPγS assay, CB2R L182I mutant; assay type: biochemical
Sequence of CB2R-L182^ECL2I (P34972 whole entry L182I): as the sequence (P34972 whole entry S285A) above, with L182I, A285S counted along it

CB2R-H95^2.65A = CB2R-H95^2.65A (Homo sapiens, UniProt P34972, H95A); assay: [35S]GTPγS assay, CB2R H95A mutant; assay type: biochemical
Sequence of CB2R-H95^2.65A (P34972 whole entry H95A): as the sequence (P34972 whole entry S285A) above, with H95A, A285S counted along it

CB2R-L185^ECL2H = CB2R-L185^ECL2H (Homo sapiens, UniProt P34972, L185H); assay: [35S]GTPγS assay, CB2R L185H mutant; assay type: biochemical
Sequence of CB2R-L185^ECL2H (P34972 whole entry L185H): as the sequence (P34972 whole entry S285A) above, with L185H, A285S counted along it

CB2R-I110^3.29A = CB2R-I110^3.29A (Homo sapiens, UniProt P34972, I110A); assay: [35S]GTPγS assay, CB2R I110A mutant; assay type: biochemical
Sequence of CB2R-I110^3.29A (P34972 whole entry I110A): as the sequence (P34972 whole entry S285A) above, with I110A, A285S counted along it

CB2R-Quadruple^TM1,7 = CB2R-Quadruple^TM1,7 (Homo sapiens, UniProt P34972, C40S/K279T/K33Q/V36I); assay: [35S]GTPγS assay, CB2R quadruple mutant; assay type: biochemical
Sequence of CB2R-Quadruple^TM1,7 (P34972 whole entry K33Q/V36I/C40S/K279T): as the sequence (P34972 whole entry S285A) above, with K33Q, V36I, C40S, K279T, A285S counted along it

CB2R-V261^6.51L = CB2R-V261^6.51L (Homo sapiens, UniProt P34972, V261L); assay: [35S]GTPγS assay, CB2R V261L mutant; assay type: biochemical
Sequence of CB2R-V261^6.51L (P34972 whole entry V261L): as the sequence (P34972 whole entry S285A) above, with V261L, A285S counted along it

CB2R-I110^3.29L = CB2R-I110^3.29L (Homo sapiens, UniProt P34972, I110L); assay: [35S]GTPγS assay, CB2R I110L mutant; assay type: biochemical
Sequence of CB2R-I110^3.29L (P34972 whole entry I110L): as the sequence (P34972 whole entry S285A) above, with I110L, A285S counted along it

CB2R-F117^3.36A = CB2R-F117^3.36A (Homo sapiens, UniProt P34972, F117A); assay: [35S]GTPγS assay, CB2R F117A mutant; assay type: biochemical
Sequence of CB2R-F117^3.36A (P34972 whole entry F117A): as the sequence (P34972 whole entry S285A) above, with F117A, A285S counted along it

[1] = system: cisplatin-induced nephropathy; assay: Cisplatin-induced nephropathy in wild type mice; assay type: in vivo, C57BL/6J mice
Protocol: (§1) Ten to twelve-week-old male/female C57BL/6J mice were obtained from The Jackson Laboratory (Bar Harbor, ME, USA). CB2R knockout mice (CB2R^−/−) and their wild-type littermates (CB2R^+/+) were developed as described previously and had been backcrossed to a C57BL/6J background. All animals were kept in a temperature-controlled environment (20–22 °C) with a 12 h light–dark cycle and were always allowed free access to food and water. All animal experiments reported in this manuscript complied with the National Institutes of Health “Guide for the Care and Use of Laboratory Animals” (NIH publication 86–23 revised 1985) and were approved by the Institutional Animal Care and Use Committee of the National Institute on Alcohol Abuse and Alcoholism (Bethesda, MD).
(§2) The well-established model of cisplatin-induced nephropathy was used[63]. Mice (CB2R^−/− and CB2R^+/+) were sacrificed 72 h after a single injection of cisplatin (cis-diamine platinum (II) dichloride (Sigma#P4394) 25 mg/kg i.p.; freshly dissolved in physiological saline) by cervical dislocation under deep anesthesia with 5% isoflurane, for collection of blood and tissue samples. LEI-102 was given i.p. or by oral gavage (p.o.) at 0.3, 3.0, and 10 mg/kg every day, starting 1.5 h before the cisplatin exposure. The drug was dissolved in a vehicle of DMSO:Tween 80:saline, 1:1:18. After administration of LEI‐102, mice were killed by cervical dislocation under deep anesthesia with 5% isoflurane, for collection of blood and tissue samples at the time described in the figure. The tetrad assay in mice has previously been described in detail.
(§3) Markers of kidney dysfunction (BUN and CREA), histopathology (PAS staining), immunostaining or ELISA for 3-nitrotyrosine (3-NT; Cell Biolabs #STA-305) and 4-hydroxynonenal (4-HNE; Cell Biolabs#STA-838), and real-time PCR (Primers from Qiagen, SYBER Green Vita Scientific#MEIF01301, High-Capacity cDNA Reverse Transcription Kit, Thermo Fisher Scientific#4368813) for inflammatory cytokines were performed as previously described. Tubular damage scores were determined based on the percentage of tubules showing epithelial necrosis where 0= normal; 1, <10%; 2, 10–25%; 3, 26–75%; 4, >75%. Tubular necrosis was defined as the loss of the proximal tubular brush border, blebbing of apical membranes, tubular epithelial cell detachment from the basement membrane, or intraluminal aggregation of cells and proteins. The morphometric examination was performed in a blinded manner. Ten fields were scored from each mouse kidneys at 200× magnification, and average scores were determined for each mouse. For final quantification graph, average tubular damage scores of six mice/group were plotted.

[2] = system: cisplatin-induced nephropathy, CB2R knockout mice (CB2R−/−); assay: Cisplatin-induced nephropathy in CB2R knockout mice; assay type: in vivo; conditions: Cisplatin KO; mean, n = 6
Protocol: as §1, §2, §3

[3] = Cisplatin WT (Fig5F), mean, n = 6
[4] = cisplatin 25 mg/kg i.p. alone, 72 h, mean, n = 6 (Fig5A)
[5] = kidney, cisplatin alone, mean, n = 6, vehicle mean 1.0
[6] = kidney, cisplatin alone, mean, n = 6, vehicle mean 1.00

Sequence of CB1R-H270^ECL2L (P21554 whole entry H270L): as the sequence (P21554 whole entry) above, with H270L counted along it

In the case of CCCCCCC(C)(C)c1ccc([C@@H]2C[C@H](O)CC[C@H]2CCCO)c(O)c1 [CP55,940], the Agonist-mediated activation (CB1R-H270^ECL2L) is reported as 1.6 ± 0.1 fold over its basal, the Agonist-mediated activation (CB1R QuadrupleTM1,7) is reported as 1.8 ± 0.1 fold over its basal and the Emax (CB2R-S285^7.39A) is reported as 25 ± 5%. It also gave an Agonist-mediated activation (hCB1R WT) of 1.2 ± 0.1 fold over its basal, an Emax (CB2R-E181^ECL2D) of 19 ± 10% and an Agonist-mediated activation (CB1R D266ECL2E) of 1.4 ± 0.1 fold over its basal. For the same molecule, the Agonist-mediated activation (CB1R I267ECL2L) was 1.0 ± 0.0 fold over its basal, the Emax (CB2R WT) was 98 ± 4% and the “Emax (%)” value (CB2R WT) was 99 ± 3%. The Emax (CB2R-L182^ECL2I) was 19 ± 2%, the Emax (CB2R-H95^2.65A) was 68 ± 11% and the “drop in potency compared to WT” value (CB2R-H95^2.65A) was 40 fold. The Emax (CB2R-L185^ECL2H) was 142 ± 16%, the Emax (CB2R-I110^3.29A) was 30 ± 2% and the Emax (CB2R-Quadruple^TM1,7) was 18 ± 14%. It also gave an Emax (CB2R-V261^6.51L) of 12 ± 7%, an Emax (CB2R-I110^3.29L) of 96 ± 3% and an Emax (CB2R-F117^3.36A) of -1 ± 14%.

With N.N.[Cl][Pt][Cl] [Cisplatin, cis-diamine platinum (II) dichloride] the BUN [1, 3] was 170, the CREA [1, 3] was 1.7 and the Tubular damage score [1, 3] was 2.16. The BUN [1, 4] was 167.5 mg/dL, the CREA [1, 4] was 1.8 mg/dL and the “serum creatinine and blood urea nitrogen levels” value ([1]; cisplatin 25 mg/kg i.p., 72 h, wild type mice vs vehicle) was “marked elevations”. The Tubular damage score ([1]; cisplatin alone, PAS staining, score 0-4, mean, n = 6 (Fig5B)) was 2.4, the “HNE (HNE adducts, ELISA)” value [1, 5] was 4.3 and the “NT (protein nitration, ELISA)” value [1, 5] was 5.7. For the same molecule, the “IL1b expression (real-time PCR)” value [1, 6] was 4.93, the “TNFa expression (real-time PCR)” value [1, 6] was 3.36 and the BUN [2] was 290. The CREA [2] was 3.7 and the Tubular damage score [2] was 2.86.
